# Experimental data as given in ChEMBL document CHEMBL5344441, “Discovery and Preclinical Pharmacology of NX-2127, an Orally Bioavailable Degrader of Bruton's Tyrosine Kinase with Immunomodulatory Activity for the Treatment of Patients with B Cell Malignancies” (J Med Chem, 2024).
# Calls of active or inactive are those of the source. No cut-off for these calls is given here.
# Columns and labels:
# [1] = biological target: Protein cereblon/Tyrosine-protein kinase BTK (Homo sapiens, UniProt Q06187+Q96SW2); experiment: PROTAC activity at CRBN/BTK in human TMD8 cells assessed as maximal degradation of BTK protein incubated for 4 hrs by HTRF assay relative to control; type: cell-based
# [2] = Cmax in mouse at 10 mg/kg,po; type: ADME, organism-based; set-up: dose 10 mg/kg, route po; settings: in vivo
# [3] = Oral bioavailability in rat at 10 mg/kg; type: ADME, organism-based; settings: in vivo
# TMD8 [4] = experiment: Antitumor activity against human TMD8 cells expressing BTK C481S mutant xenografted in CB17-SCID mouse assessed as tumor growth inhibition at 10 mg/kg,po administration for 25 days; type: functional; settings: TMD8, 600 h, time 25 day, read-out: TGI
# [5] = biological target: Protein cereblon-BTK (Canis lupus familiaris) (UniProt A0A8I3NIQ5+A0A8I3P7Z3); experiment: In vivo protac activity at CRBN/BTK in Beagle dog assessed as remaining BTK protein at 10 mg/kg,po administration measured after 24 hrs by flow cytomtery relative to control; type: functional, organism-based
# [6] = biological target: T1, Protein cereblon/Tyrosine-protein kinase BTK (Mus musculus) (UniProt P35991+Q8C7D2); experiment: In vivo protac activity at CRBN/BTK in CD-1 mouse assessed as remaining BTK protein in blood at 30 mg/kg,po administration measured after 24 hrs by flow cytomtery relative to control; type: functional, organism-based
# [7] = biological target: T2, Protein cereblon-BTK (Macaca fascicularis) (UniProt A0A2K5UTB3+A0A7N9IGT8); experiment: In vivo protac activity at CRBN/BTK in cynomolgus monkey assessed as remaining BTK protein in B cells at 10 to 100 mg/kg,po administration for 14 days by flow cytomtery relative to control; type: functional, organism-based; settings: dose 10-100 mg/kg, time 14.0 day
# Cytochrome P450 3A4 = Cytochrome P450 3A4 (Homo sapiens, UniProt P08684); experiment: Time dependent inhibition of CYP3A4 (unknown origin); type: ADME
# [8] = Cmax in cynomolgus monkey at 10 mg/kg,po; type: ADME, organism-based, Macaca fascicularis; set-up: dose 10 mg/kg, route po; settings: in vivo
# [9] = biological target: T3, Protein cereblon/Zinc finger protein Aiolos (Macaca fascicularis) (UniProt A0A2K5UTB3+A0A2K5VJM3); experiment: In vivo protac activity at CRBN/IKZF3 in cynomolgus monkey assessed as degradation of IKZF3 protein at 10 mg/kg,po administration for 14 days by flow cytomtery relative to control; type: functional, organism-based; settings: time 14.0 day
# [10] = Plasma protein binding in rat; type: ADME, cell-free; settings: read-out: PPB
# [11] = Cmax in cynomolgus monkey at 10 mg/kg,po administration for 14 days; type: ADME, organism-based, Macaca fascicularis; set-up: dose 10 mg/kg, time 14 day, route po; settings: in vivo
# [12] = Aqueous solubility of the compound in PBS at pH 7.4; type: physicochemical
# [13] = biological target: T2, Protein cereblon-BTK (Macaca fascicularis); experiment: In vivo protac activity at CRBN/BTK in cynomolgus monkey assessed as remaining BTK protein in B cells at 100 mg/kg,po administration for 1 day by flow cytomtery relative to control; type: functional, organism-based
# [14] = biological target: T2, Protein cereblon-BTK (Macaca fascicularis); experiment: In vivo protac activity at CRBN/BTK in cynomolgus monkey assessed as remaining BTK protein in B cells at 10 mg/kg,po administration for 1 day by flow cytomtery relative to control; type: functional, organism-based
# [15] = biological target: T1, Protein cereblon/Tyrosine-protein kinase BTK (Mus musculus); experiment: In vivo protac activity at CRBN/BTK in BALB/c mouse assessed as residual BTK protein in blood at 30 mg/kg,po administration measured after 24 hrs by flow cytomtery relative to control
# Cereblon/Ikaros [16] = biological target: T4, Cereblon/Ikaros (Homo sapiens, UniProt Q96SW2+Q13422); experiment: PROTAC activity at CRBN/IKZF1 in human T cell assessed as degradation of IKZF1 protein incubated for 24 hrs by flow cytometry; type: cell-based
# [17] = Observed clearance in dog at 1 mg/kg,iv; type: ADME, organism-based, Canis lupus familiaris; settings: in vivo
# [18] = biological target: T1, Protein cereblon/Tyrosine-protein kinase BTK (Mus musculus); experiment: In vivo protac activity at CRBN/BTK in BALB/c mouse assessed as residual BTK protein in blood at 10 mg/kg,po administration measured after 24 hrs by flow cytomtery relative to control
# [19] = biological target: T3, Protein cereblon/Zinc finger protein Aiolos (Macaca fascicularis); experiment: In vivo protac activity at CRBN/IKZF3 in cynomolgus monkey assessed as degradation of IKZF3 protein at po administration measured after 24 hrs by flow cytomtery; type: functional, organism-based
# [20] = AUClast in cynomolgus monkey at 10 mg/kg,po administration for 14 days; type: ADME, organism-based, Macaca fascicularis; set-up: time 14 day, dose 10 mg/kg, route po; settings: in vivo
# [21] = system: Protein cereblon/Tyrosine-protein kinase BTK (Homo sapiens); experiment: In vivo protac activity at CRBN/BTK in CB17-SCID mouse xenografted with human TMD8 cells assessed as degradation of BTK protein in tumor at 10 to 90 mg/kg,po administration for 25 days by flow cytomtery; settings: dose 10-90 mg/kg, time 25.0 day
# [22] = biological target: T2, Protein cereblon-BTK (Macaca fascicularis); experiment: In vivo protac activity at CRBN/BTK in cynomolgus monkey assessed as remaining BTK protein at 10 mg/kg,po administration measured after 24 hrs by flow cytomtery relative to control; type: functional, organism-based
# [23] = Cmax in rat at 10 mg/kg,po; type: ADME, organism-based; set-up: dose 10 mg/kg, route po; settings: in vivo
# [24] = Lipophilicity, logD of compound at pH 7.4; type: physicochemical; settings: buffer
# [25] = biological target: T1, Protein cereblon/Tyrosine-protein kinase BTK (Mus musculus); experiment: In vivo protac activity at CRBN/BTK in mouse assessed as remaining BTK protein at 10 mg/kg,po administration measured after 24 hrs by flow cytomtery relative to control; type: functional, organism-based
# [26] = AUC in rat at 10 mg/kg,po; type: ADME, organism-based; set-up: dose 10 mg/kg, route po; settings: in vivo
# [27] = biological target: Tyrosine-protein kinase BTK (Homo sapiens, UniProt Q06187); experiment: Binding affinity to BTK (unknown origin) assessed as dissociation constant by surface plasmon resonance assay
# [28] = biological target: T3, Protein cereblon/Zinc finger protein Aiolos (Macaca fascicularis); experiment: In vivo protac activity at CRBN/IKZF3 in cynomolgus monkey assessed as degradation of IKZF3 protein at 30 mg/kg,po administration for 14 days by flow cytomtery relative to control; type: functional, organism-based; settings: time 14.0 day
# T-cell = experiment: Activation of T-cellular function in anti-CD3/anti-CD28 activated human T cell assessed as increase in IL-2 secretion at 0.001 to 100 nM incubated for 24 hrs followed by anti-CD3/anti-CD28 stimulation by ELISA; type: functional, cell-based; settings: dose 0.001-100 nM
# Cereblon/Ikaros [29] = biological target: T4, Cereblon/Ikaros; experiment: In vivo protac activity at CRBN/IKZF1 in CB17-SCID mouse xenografted with human TMD8 cells assessed as degradation of IKZF1 protein in tumor at 10 to 90 mg/kg,po administration for 25 days by flow cytomtery; type: functional, organism-based; settings: dose 10-90 mg/kg, time 25.0 day
# TMD8 [30] = experiment: Antitumor activity against human TMD8 cells expressing BTK C481S mutant xenografted in CB17-SCID mouse assessed as tumor growth inhibition at 30 mg/kg,po administration for 25 days; type: functional; settings: TMD8, 600 h, time 25 day, read-out: TGI
# [31] = biological target: Protein cereblon/Tyrosine-protein kinase BTK (Homo sapiens, UniProt Q06187+Q96SW2, C481S); experiment: PROTAC activity at CRBN/BTK C481S mutant in human TMD8 cells assessed as degradation of BTK protein incubated for 4 hrs by HTRF assay; type: cell-based
# Cytochrome P450 2D6 = Cytochrome P450 2D6 (Homo sapiens, UniProt P10635); experiment: Inhibition of CYP2D6 (unknown origin); type: ADME
# [32] = Apparent permeability across apical to basolateral side in human Caco-2 cells; type: ADME, cell-based
# T3 sequence (A0A2K5UTB3 1-488): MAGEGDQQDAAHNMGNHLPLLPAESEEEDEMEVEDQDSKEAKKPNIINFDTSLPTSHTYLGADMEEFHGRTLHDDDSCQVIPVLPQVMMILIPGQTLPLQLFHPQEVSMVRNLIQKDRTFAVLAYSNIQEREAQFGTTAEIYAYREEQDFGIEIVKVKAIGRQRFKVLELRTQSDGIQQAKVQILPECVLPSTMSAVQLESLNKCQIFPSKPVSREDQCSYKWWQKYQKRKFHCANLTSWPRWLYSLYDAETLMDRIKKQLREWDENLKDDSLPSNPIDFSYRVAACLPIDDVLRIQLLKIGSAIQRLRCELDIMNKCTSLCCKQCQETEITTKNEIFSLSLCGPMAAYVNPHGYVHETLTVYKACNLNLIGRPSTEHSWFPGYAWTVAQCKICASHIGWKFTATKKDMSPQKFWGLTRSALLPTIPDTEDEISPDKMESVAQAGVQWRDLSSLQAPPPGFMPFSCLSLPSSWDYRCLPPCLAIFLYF
# T3 sequence (A0A2K5VJM3 entry or part of it partner): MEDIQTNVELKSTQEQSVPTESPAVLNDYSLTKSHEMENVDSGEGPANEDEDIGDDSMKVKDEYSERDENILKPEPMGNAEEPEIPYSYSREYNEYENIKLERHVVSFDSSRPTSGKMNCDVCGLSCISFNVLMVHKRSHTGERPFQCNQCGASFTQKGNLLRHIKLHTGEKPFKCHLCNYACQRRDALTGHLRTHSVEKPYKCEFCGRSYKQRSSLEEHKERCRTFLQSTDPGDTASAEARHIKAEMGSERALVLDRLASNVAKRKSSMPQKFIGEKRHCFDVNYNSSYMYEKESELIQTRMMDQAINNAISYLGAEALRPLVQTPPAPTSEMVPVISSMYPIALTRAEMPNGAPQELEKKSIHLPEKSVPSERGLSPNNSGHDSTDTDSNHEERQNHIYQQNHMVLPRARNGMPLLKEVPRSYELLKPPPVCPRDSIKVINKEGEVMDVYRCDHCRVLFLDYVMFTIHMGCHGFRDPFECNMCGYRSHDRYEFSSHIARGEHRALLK
# T2 sequence (A0A2K5UTB3 1-488): as the sequence (A0A2K5UTB3 1-488) above
# T2 sequence (A0A7N9IGT8 entry or part of it partner): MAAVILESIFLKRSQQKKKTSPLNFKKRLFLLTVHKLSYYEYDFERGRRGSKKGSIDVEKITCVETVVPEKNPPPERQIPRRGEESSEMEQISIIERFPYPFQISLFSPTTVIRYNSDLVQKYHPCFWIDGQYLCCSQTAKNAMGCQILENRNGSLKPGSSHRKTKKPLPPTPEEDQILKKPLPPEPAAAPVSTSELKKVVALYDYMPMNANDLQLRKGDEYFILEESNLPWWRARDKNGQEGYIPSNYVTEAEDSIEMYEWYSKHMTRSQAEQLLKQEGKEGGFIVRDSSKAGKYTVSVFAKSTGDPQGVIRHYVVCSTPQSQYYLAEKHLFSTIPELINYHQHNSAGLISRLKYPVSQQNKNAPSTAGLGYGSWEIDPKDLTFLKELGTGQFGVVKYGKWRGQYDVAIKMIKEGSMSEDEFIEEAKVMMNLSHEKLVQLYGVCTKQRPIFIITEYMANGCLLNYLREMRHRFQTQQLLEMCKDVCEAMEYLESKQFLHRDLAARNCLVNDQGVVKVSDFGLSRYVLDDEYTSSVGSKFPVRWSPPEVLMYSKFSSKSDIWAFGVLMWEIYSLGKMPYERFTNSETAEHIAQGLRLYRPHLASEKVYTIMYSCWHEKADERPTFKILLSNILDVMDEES
# T1 sequence (P35991 whole entry, looked up): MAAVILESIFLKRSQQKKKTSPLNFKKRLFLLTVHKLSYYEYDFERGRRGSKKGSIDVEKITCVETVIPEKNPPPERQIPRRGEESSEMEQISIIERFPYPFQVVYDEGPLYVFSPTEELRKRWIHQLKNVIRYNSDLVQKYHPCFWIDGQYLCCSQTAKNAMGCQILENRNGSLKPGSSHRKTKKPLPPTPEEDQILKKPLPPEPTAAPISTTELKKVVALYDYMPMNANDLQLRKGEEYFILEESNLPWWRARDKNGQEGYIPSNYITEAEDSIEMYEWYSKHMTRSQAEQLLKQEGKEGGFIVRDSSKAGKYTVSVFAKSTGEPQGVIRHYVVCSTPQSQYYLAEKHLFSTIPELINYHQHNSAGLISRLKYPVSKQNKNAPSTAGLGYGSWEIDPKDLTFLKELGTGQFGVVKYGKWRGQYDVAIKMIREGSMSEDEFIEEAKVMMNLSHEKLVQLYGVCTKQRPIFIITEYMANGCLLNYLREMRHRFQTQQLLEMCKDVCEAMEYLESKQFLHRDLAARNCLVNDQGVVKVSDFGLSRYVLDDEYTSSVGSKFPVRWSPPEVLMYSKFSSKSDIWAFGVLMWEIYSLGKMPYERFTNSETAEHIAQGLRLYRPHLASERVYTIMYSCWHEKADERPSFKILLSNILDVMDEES
# T1 sequence (Q8C7D2 whole entry, looked up): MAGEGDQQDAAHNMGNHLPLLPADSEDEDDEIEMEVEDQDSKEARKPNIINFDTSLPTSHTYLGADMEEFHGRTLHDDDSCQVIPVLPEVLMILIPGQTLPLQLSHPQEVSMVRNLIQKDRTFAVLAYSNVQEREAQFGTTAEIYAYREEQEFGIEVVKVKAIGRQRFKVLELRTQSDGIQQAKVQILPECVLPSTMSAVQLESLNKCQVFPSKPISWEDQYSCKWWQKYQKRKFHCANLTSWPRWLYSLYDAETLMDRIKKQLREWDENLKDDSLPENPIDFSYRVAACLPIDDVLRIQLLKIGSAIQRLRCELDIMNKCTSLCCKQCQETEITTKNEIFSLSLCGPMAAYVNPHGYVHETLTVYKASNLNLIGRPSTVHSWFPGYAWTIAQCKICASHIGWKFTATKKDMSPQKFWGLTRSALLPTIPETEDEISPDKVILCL
# Chain of Protein cereblon/Tyrosine-protein kinase BTK (Homo sapiens, UniProt Q06187+Q96SW2, C481S) (Q06187 2-659 C481S limits assumed, stated change not applied): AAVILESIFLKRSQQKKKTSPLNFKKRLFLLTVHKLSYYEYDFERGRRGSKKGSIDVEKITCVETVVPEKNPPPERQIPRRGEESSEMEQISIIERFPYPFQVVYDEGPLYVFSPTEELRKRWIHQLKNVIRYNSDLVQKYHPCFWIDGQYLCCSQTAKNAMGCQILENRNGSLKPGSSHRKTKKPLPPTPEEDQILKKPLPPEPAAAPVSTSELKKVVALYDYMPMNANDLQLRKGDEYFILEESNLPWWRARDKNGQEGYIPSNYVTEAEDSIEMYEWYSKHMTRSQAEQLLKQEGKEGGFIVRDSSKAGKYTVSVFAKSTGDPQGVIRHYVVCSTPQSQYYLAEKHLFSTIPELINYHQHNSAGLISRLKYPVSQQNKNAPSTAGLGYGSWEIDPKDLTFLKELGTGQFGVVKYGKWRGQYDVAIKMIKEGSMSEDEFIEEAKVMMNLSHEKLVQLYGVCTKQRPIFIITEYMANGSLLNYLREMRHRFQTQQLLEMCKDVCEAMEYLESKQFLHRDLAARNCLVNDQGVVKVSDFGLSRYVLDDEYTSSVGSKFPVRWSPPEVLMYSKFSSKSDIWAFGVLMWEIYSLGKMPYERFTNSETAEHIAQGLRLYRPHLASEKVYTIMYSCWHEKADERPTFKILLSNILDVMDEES
# Chain of Protein cereblon/Tyrosine-protein kinase BTK (Homo sapiens, UniProt Q06187+Q96SW2, C481S) (Q96SW2 whole entry, stated change not applied): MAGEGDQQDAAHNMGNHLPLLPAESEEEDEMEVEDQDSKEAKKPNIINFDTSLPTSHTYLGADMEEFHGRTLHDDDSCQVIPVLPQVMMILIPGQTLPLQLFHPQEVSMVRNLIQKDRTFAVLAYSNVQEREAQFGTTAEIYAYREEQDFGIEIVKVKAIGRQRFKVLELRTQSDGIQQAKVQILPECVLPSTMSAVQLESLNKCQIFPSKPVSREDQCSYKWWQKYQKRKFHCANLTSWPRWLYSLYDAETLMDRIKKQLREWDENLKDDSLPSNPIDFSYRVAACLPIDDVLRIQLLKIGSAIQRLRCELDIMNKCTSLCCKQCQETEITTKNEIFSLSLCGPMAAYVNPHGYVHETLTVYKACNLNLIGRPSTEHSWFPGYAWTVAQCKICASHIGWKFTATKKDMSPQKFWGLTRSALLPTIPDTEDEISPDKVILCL
# Chain of Cytochrome P450 3A4 (P08684 whole entry): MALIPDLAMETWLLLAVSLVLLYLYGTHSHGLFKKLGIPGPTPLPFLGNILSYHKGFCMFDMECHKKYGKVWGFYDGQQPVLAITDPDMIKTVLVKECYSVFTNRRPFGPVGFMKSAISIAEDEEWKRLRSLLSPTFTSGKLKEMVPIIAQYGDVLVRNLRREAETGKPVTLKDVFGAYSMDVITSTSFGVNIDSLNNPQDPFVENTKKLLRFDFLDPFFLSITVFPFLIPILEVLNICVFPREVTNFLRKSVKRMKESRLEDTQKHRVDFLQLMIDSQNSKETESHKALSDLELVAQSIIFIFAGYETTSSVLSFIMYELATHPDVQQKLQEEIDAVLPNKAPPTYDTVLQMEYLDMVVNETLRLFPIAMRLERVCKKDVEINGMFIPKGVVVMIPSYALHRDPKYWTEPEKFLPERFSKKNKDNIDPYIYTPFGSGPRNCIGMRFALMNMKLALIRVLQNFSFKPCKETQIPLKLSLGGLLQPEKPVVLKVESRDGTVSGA
smiles,measurement,setting,value
NC(=O)c1ncc(N2CCCCC2)nc1Nc1ccc(C2CCN(C[C@H]3CCN(c4ccc5c(c4)C(=O)N(C4CCC(=O)NC4=O)C5=O)C3)CC2)cc1 (stereo not given in full) [ZELEBRUDOMIDE],Emax,[1],94%
same,Cmax,[2],1300 nM
same,bioavailability,[3],7.1%
same,inhibition in vivo at 10 mg/kg,TMD8 [4],17%
same,Activity,[5],17%
same,Activity,[6],11%
same,Activity,[7],< 10%
same,TDI,Cytochrome P450 3A4,Not Active
same,Cmax,[8],11 nM
same,Activity,[9],76%
same,fraction unbound,[10],< 0.015
same,Cmax,[11],25.4 ng/mL
same,solubility,[12],0.2 µM
same,Activity,[13],8%
same,Activity,[14],11%
same,residual activity,[15],12%
same,DC50,Cereblon/Ikaros [16],57 nM
same,clearance,[17],18.4 mL/min/kg
same,residual activity,[18],21%
same,Activity,[19],Dose-Dependent Effect
same,AUC(0-t) at 336 h,[20],366 ng·h/mL
same,Activity,[21],Active
same,Activity,[22],10%
same,Cmax,[23],67 nM
same,logD,[24],3.1
same,Activity,[25],21%
same,AUC,[26],0.89 µM·h
same,Kd,[27],45 nM
same,Activity,[28],55%
same,Activity,T-cell,Active
same,Activity,Cereblon/Ikaros [29],Active
same,inhibition in vivo at 30 mg/kg,TMD8 [30],43%
same,DC50,[31],31 nM
same,IC50,Cytochrome P450 2D6,> 30000 nM
same,Papp A→B,[32],< 0.02 ×10⁻⁶ cm/s
